Results reported in publication PMC5874699, “Antimicrobial and Antibiofilm Activity of UP-5, an Ultrashort Antimicrobial Peptide Designed Using Only Arginine and Biphenylalanine” (Pharmaceuticals, 2018).
Square brackets hold non-standard residues; d marks the D form. Peptide text beside a SMILES is read from it. Bip = N[C@@H](Cc1ccc(-c2ccccc2)cc1)C(=O)O

Key:
[1] = test system: Staphylococcus aureus (ATCC 29213); format: cell-based; settings: ATCC 29213, 24 h
Source text: (§1) All bacterial susceptibility, biofilm, and synergistic assays of peptides, antibiotics, and peptides-antibiotics combinations used bacterial strains obtained from the American Type Tissue Culture Collection (ATCC, Manassas, VA, USA) that states the mechanism of resistance for each strain according to ATCC number. Gram-positive bacteria were represented by five strains, the wild type strain Staphylococcus aureus (ATCC 29213) and methicillin-resistant S. aureus (MRSA) (ATCC 33591) in addition to clinically isolated strains S. aureus (ATCC BAA-41& 43300) and Enterococcus faecalis (ATCC BAA-2316). The Gram-negative bacteria strains were represented by wild type strains of Escherichia coli (ATCC 25922 & 35218) and Pseudomonas aeruginosa (ATCC 27853) as well as the clinically isolated multidrug-resistant strain P. aeruginosa (ATCC BAA-2114). The bacteria were cultured onto Muller Hinton Agar (Scharlab, S.L, Barcelona, Spain). Mueller Hinton Broth (Oxoid Ltd., Basingstoke, UK) was used to prepare all bacterial suspensions and to dissolve the peptides and the antibiotics. The assay was performed in sterile 96-well polypropylene microtiter plates.
All bacterial susceptibility assays were conducted according to the microbroth dilution method outlined by the Clinical and Laboratory Standards Institute (CLSI) guidelines.
Briefly, pre-sterilized MHB was used as a growth medium for organisms obtained from stock media with glycerol. Bacterial cells were grown overnight in MHB and diluted to 10^6 CFU/mL in the same medium prior to use. For peptide, serial concentrations in the range of 0.5–100 μM were prepared. Then, 50 μL of each peptide concentration and 50 µL of diluted bacterial suspension were added to each well of a 96-well microtiter plate. Peptide solutions were prepared by dissolving the peptide in sterile MHB. Then, the plates were incubated overnight in a humidified atmosphere, and at 37 °C. Bacterial growth was determined by measuring the optical density (OD) at λ = 600 nm using an ELISA plate reader (Epoch, BioTek, Winooski, VT, USA) and the minimum inhibitory concentration (MIC) was determined.
As described in the previous section, the MIC and MBC values of antibiotics employed in this study were determined against subjected bacterial strains via preparing different concentrations of each antibiotic.

S. aureus (ATCC BAA-41) [2] = format: cell-based, Staphylococcus aureus; settings: ATCC BAA-41, 24 h
How it was run: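 This is a CLSI microbroth dilution in Mueller Hinton broth, with peptide dissolved in MHB over 0.5–100 μM. Antibiotic MIC/MBC were determined analogously.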

S. aureus (ATCC 33591) = assay: Broth microdilution checkerboard, UP-5 with antibiotics; format: cell-based, Staphylococcus aureus; settings: S. aureus ATCC 33591, checkerboard, triplicate
Source text: as §1
(§2) According to the broth microdilution checkerboard technique, the MIC and MBC values of peptide-antibiotics combinations against wild type and multidrug resistant bacterial strains were determined. Serial concentrations of peptide and each antibiotic were prepared in the range of 0.005–100 μM. In each well of a 96-well microtiter plate, 25 μL of each peptide concentration were added to 25 μL of each antibiotic concentration which is followed by adding 50 μL of diluted bacterial suspension (10^6 CFU/mL) to each well. The prepared concentrations of peptide and each antibiotic were arranged into rows and columns, respectively, in a 96-well microtiter plate according the checkerboard technique. Then as described previously (see Section 2.4.1), the procedure was followed. All MIC and MBC determinations of all assays were made in triplicate.
(§3) The fractional inhibitory concentration (FIC) is defined as the inhibitory concentration of the antimicrobial combination divided by that of the single antimicrobial component. To calculate FIC index for peptide-antibiotic combinations, the following equation was used:(1) FIC index=MIC of drug X in combination/MIC of drug X alone+MIC of drug Y in combination/MIC of drug Y alone
(§4) The FIC indices were interpreted as follows: ≤0.5: synergistic activity, 0.5–1: additive activity, 1–4 indifferent, >4: antagonism. Interpretation and assessment of the FIC indices were performed according to the broth microdilution checkerboard technique.

S. aureus (ATCC 43300) = assay: as above; format: cell-based, Staphylococcus aureus; settings: S. aureus ATCC 43300, checkerboard, triplicate
Source text: as §1, §2, §3, §4

S. aureus (ATCC 29213) = assay: as above; format: cell-based, Staphylococcus aureus; settings: S. aureus ATCC 29213, checkerboard, triplicate
Source text: as §1, §2, §3, §4

S. aureus (ATCC BAA-41) [3] = assay: as above; format: cell-based, Staphylococcus aureus; settings: S. aureus ATCC BAA-41, checkerboard, triplicate
Source text: as §1, §2, §3, §4

in vitro = in vitro ADME; settings: mouse
Protocol: The stability assay of UP-5 relied on a previously reported stability test procedure employing mouse plasma or mouse serum (PAA Laboratories, Pasching, Austria). Briefly, a stock solution of the peptide was prepared in 5% aqueous DMSO. The highest DMSO concentration was less than 0.5% after dilution in order to have a final concentration of peptide equal to 1 g/L. Each peptide was dissolved in plasma or serum at a final concentration corresponding to 75 µg/mL and incubated at 37 °C (750 rpm, Eppendorf, Hamburg, Germany). After different time periods, aliquots (47.5 µL) were taken and proteins were precipitated by addition of 150 µL of a mixture composed acetonitrile, water, and formic acid (89:10:1 by volume). The samples were incubated on ice for 45 min and centrifuged for 10 min at 13,000× g (Eppendorf, Hamburg, Germany). […] The second supernatant (155 µL) was collected and dried under vacuum. The samples were dissolved in 3% aqueous acetonitrile containing, 0.1% formic acid, and were analyzed using an Agilent 1100 HPLC system (Agilent Technologies, Santa Clara, CA, USA), coupled online to an Esquire HCT mass spectrometer (Bruker Daltonik GmbH, Bremen, Germany) equipped with an analytical Jupiter C18-reversed phase column (2 mm inner diameter, 150 mm length, 5 µm particle size, […]). Eluent A contained 0.1% formic acid in water and Eluent B was 60% aqueous acetonitrile containing 0.1% formic acid.

[4] = UP-5 in combination with Ampicillin
[5] = UP-5 in combination with Chloramphenicol
[6] = UP-5 in combination with Erythromycin
[7] = UP-5 in combination with Levofloxacin
[8] = UP-5 in combination with Rifampicin

MIC Value [1]: 10 µM
MIC Value (S. aureus (ATCC BAA-41) [2]): 15 µM
UP-5 MIC in Combination (S. aureus (ATCC 33591); [4]): 1.25 µM
UP-5 MIC in Combination (S. aureus (ATCC 33591); [5]): 5 µM
UP-5 MIC in Combination (S. aureus (ATCC 33591); [6]): 0.125 µM
UP-5 MIC in Combination (S. aureus (ATCC 33591); [7]): 0.125 µM
UP-5 MIC in Combination (S. aureus (ATCC 33591); [8]): 0.125 µM
UP-5 MIC in Combination (S. aureus (ATCC 43300); [4]): 7.5 µM
UP-5 MIC in Combination (S. aureus (ATCC 43300); [5]): 7.5 µM
UP-5 MIC in Combination (S. aureus (ATCC 43300); [6]): 7.5 µM
UP-5 MIC in Combination (S. aureus (ATCC 43300); [7]): 0.025 µM
UP-5 MIC in Combination (S. aureus (ATCC 43300); [8]): 5 µM
UP-5 MIC in Combination (S. aureus (ATCC 29213); [4]): 0.25 µM
UP-5 MIC in Combination (S. aureus (ATCC 29213); [5]): 2.5 µM
UP-5 MIC in Combination (S. aureus (ATCC 29213); [6]): 10 µM
UP-5 MIC in Combination (S. aureus (ATCC 29213); [7]): 0.125 µM
UP-5 MIC in Combination (S. aureus (ATCC 29213); [8]): 10 µM
UP-5 MIC in Combination (S. aureus (ATCC BAA-41) [3]; [4]): 7.5 µM
UP-5 MIC in Combination (S. aureus (ATCC BAA-41) [3]; [5]): 7.5 µM
UP-5 MIC in Combination (S. aureus (ATCC BAA-41) [3]; [6]): 15 µM
UP-5 MIC in Combination (S. aureus (ATCC BAA-41) [3]; [7]): 15 µM
UP-5 MIC in Combination (S. aureus (ATCC BAA-41) [3]; [8]): 15 µM
half-life at 75 µg/mL (in vitro; plasma): 2.88 h
metabolised at 1 h, 75 µg/mL (in vitro; plasma): 27%
metabolised at 4 h, 75 µg/mL (in vitro; plasma): 66%
remaining at 1 h, 75 µg/mL (in vitro; plasma): 73%
remaining at 4 h, 75 µg/mL (in vitro; plasma): 34%
half-life at 75 µg/mL (in vitro; serum): < 0.25 h
metabolised at 0.25 h, 75 µg/mL (in vitro; serum): > 80%
Compound: N=C(N)NCCC[C@H](NC(=O)[C@H](Cc1ccc(-c2ccccc2)cc1)NC(=O)[C@H](CCCNC(=N)N)NC(=O)[C@H](Cc1ccc(-c2ccccc2)cc1)NC(=O)[C@@H](N)CCCNC(=N)N)C(=O)O [UP-5] (H-R[Bip]R[Bip]R-OH)
MBC Value [1]: 10 µM
MBC Value (S. aureus (ATCC BAA-41) [2]): 15 µM
